Measurements from patent publication EP0888056B1, “HERBICIDAL MIXTURES” (BASF AKTIENGESELLSCHAFT, priority 1996, dated 1998).
Where “and” joins values, the source holds several entries; their conditions need not be identical. Equal entries are not always repeated.

Assays:
Type in all cases: in vivo
Lamium purpureum = assay: greenhouse herbicidal trial, post-emergence application, assessment 21 days after treatment
Experimental: (§1) The trials are carried out under greenhouse conditions in pre- and post-emergence applications. The plant seeds are sown in pots containing a loamy sand soil (0.5 I). The herbicides are applied as single treatments, or in a combination comprising a BAP compound and a non-BAP compound as designated, before or after emergence of weeds and crop. The herbicidal performance is assessed as percent damage in comparison to the untreated control plants. The assessment is done 21 days after the treatment. Wheat and barley are treated at the 3-4 leaf stage, the broad-leaf weeds at the 2-4 leaf stage and annual grasses at the 2-3 leaf stage.

Veronica persica = assay: as above
Experimental: as §1

Stellaria media = assay: as above
Experimental: as §1

Galium aparine = assay: as above
Experimental: as §1

Papaver rhoeas = assay: as above
Experimental: as §1

Polygonum convolvulus = assay: as above
Experimental: as §1

Myosotis arvensis = assay: as above
Experimental: as §1

Viola arvensis = assay: as above
Experimental: as §1

Matricaria inodora = assay: as above
Experimental: as §1

Polygonum lapathifolium = assay: as above
Experimental: as §1

Alopecurus myosuroides [1] = assay: as above
Experimental: as §1

Setaria viridis = assay: as above
Experimental: as §1

Lolium perenne = assay: as above
Experimental: as §1

Poa annua = assay: as above
Experimental: as §1

Alopecurus myosuroides [2] = assay: greenhouse herbicidal trial, pre-emergence application, assessment 21 days after treatment
Experimental: as §1

[3] = Galium aparine (1.whorl), 15 g a.i./ha
[4] = Galium aparine (2.whorl), 15 g a.i./ha
[5] = Galium aparine (1.whorl), 60 g a.i./ha
[6] = Galium aparine (1.whorl), 120 g a.i./ha
[7] = Galium aparine (2.whorl), 60 g a.i./ha
[8] = Galium aparine (2.whorl), 120 g a.i./ha
[9] = Galium aparine (1.whorl), 30 g a.i./ha

## COc1cc(OC)nc(NC(=O)NS(=O)(=O)N(C)S(C)(=O)=O)n1 [Amidosulfuron, reference compound]
Lamium purpureum; 30 g a.i./ha
  % Control: 0%
Veronica persica; 30 g a.i./ha
  % Control: 0%
Stellaria media; 30 g a.i./ha
  % Control: 50%
Galium aparine; [3]
  % Control: 40%
Galium aparine; [4]
  % Control: 20%
Papaver rhoeas; 30 g a.i./ha
  % Control: 15%

## CCCCCCCC(=O)Oc1c(Br)cc(C#N)cc1Br [Bromoxynil, Bromoxynil Octanoate, reference compound]
Lamium purpureum; 60 g a.i./ha
  % Control: 17%
Stellaria media; 60 g a.i./ha
  % Control: 0%
Galium aparine; [5]
  % Control: 70%
Galium aparine; [6]
  % Control: 75%
Galium aparine; [7]
  % Control: 57%
Galium aparine; [8]
  % Control: 77%
Papaver rhoeas; 60 g a.i./ha
  % Control: 79%

## Cc1cc(Cl)ccc1O[C@H](C)C(=O)O [CMPP-P, (R)-2-(4-chloro-2-methylphenoxy) proprionic acid]
Lamium purpureum; 480 g a.i./ha
  % Control: 67%
Polygonum convolvulus; 480 g a.i./ha
  % Control: 40%
Papaver rhoeas; 480 g a.i./ha
  % Control: 47%

## Cn1nc(C(F)(F)F)cc1Oc1cccc(Oc2cc(C(F)(F)F)nn2C)n1 [Compound A]
Myosotis arvensis; 15 g a.i./ha
  % Control: 72%
Myosotis arvensis; 30 g a.i./ha
  % Control: 57%
Viola arvensis; 30 g a.i./ha
  % Control: 75%
Lamium purpureum; 30 g a.i./ha
  % Control: 65% and 62% and 35%
Veronica persica; 30 g a.i./ha
  % Control: 81%
Matricaria inodora; 15 g a.i./ha
  % Control: 1%
Matricaria inodora; 30 g a.i./ha
  % Control: 1%
Stellaria media; 30 g a.i./ha
  % Control: 45% and 65%
Galium aparine; [9]
  % Control: 80% and 57%
Galium aparine; Galium aparine (1.whorl), 50 g a.i./ha
  % Control: 50%
Galium aparine; [5]
  % Control: 67%
Galium aparine; Galium aparine (2.whorl), 50 g a.i./ha
  % Control: 30%
Galium aparine; [7]
  % Control: 42%
Papaver rhoeas; 15 g a.i./ha
  % Control: 79%
Papaver rhoeas; 60 g a.i./ha
  % Control: 10%

## Cc1cc(Oc2cc(C(F)(F)F)nn2C)nc(Oc2cc(C(F)(F)F)nn2C)c1 [Compound B]
Lamium purpureum; 7.5 g a.i./ha
  % Control: 70%
Veronica persica; 7.5 g a.i./ha
  % Control: 65%
Veronica persica; 15 g a.i./ha
  % Control: 77%
Polygonum lapathifolium; 15 g a.i./ha
  % Control: 17%
Matricaria inodora; 15 9 a.i./ha
  % Control: 7%
Matricaria inodora; 15 g a.i./ha
  % Control: 20%
Matricaria inodora; 30 g a.i./ha
  % Control: 22%
Stellaria media; 7.5 g a.i./ha
  % Control: 25%
Stellaria media; 15 g a.i./ha
  % Control: 47% and 45% and 27%
Stellaria media; 30 g a.i./ha
  % Control: 62% and 42%
Galium aparine; Galium aparine (1.whorl), 15 9 a.i./ha
  % Control: 80%
Galium aparine; [3]
  % Control: 67% and 40%
Galium aparine; [9]
  % Control: 83% and 52%
Galium aparine; Galium aparine (2.whorl), 15 9 a.i./ha
  % Control: 60%
Galium aparine; [4]
  % Control: 45% and 37%
Galium aparine; Galium aparine (2.whorl), 30 g a.i./ha
  % Control: 67% and 65% and 45%
Galium aparine; Galium aparine (3.whorl), 15 g a.i./ha
  % Control: 40%
Galium aparine; Galium aparine (3.whorl), 30 g a.i./ha
  % Control: 40%
Polygonum convolvulus; 15 g a.i./ha
  % Control: 7%
Polygonum convolvulus; 30 g a.i./ha
  % Control: 15% and 7%
Papaver rhoeas; 7.5 g a.i./ha
  % Control: 7%

## Cc1cc(OCc2ccc(F)cc2)nc(Oc2cc(C(F)(F)F)nn2C)c1 [Compound C]
Alopecurus myosuroides [1]; 12.5 g a.i./ha
  % control: 65%
Alopecurus myosuroides [1]; 25 g a.i./ha
  % control: 83%
Alopecurus myosuroides [1]; 50 g a.i./ha
  % control: 88%
Setaria viridis; 12.5 g a.i./ha
  % Control: 30%
  % control: 30%
Setaria viridis; 25 g a.i./ha
  % control: 55%
Setaria viridis; 50 g a.i./ha
  % control: 75%
Lolium perenne; 12.5 g a.i./ha
  % control: 38%
Lolium perenne; 25 g a.i./ha
  % control: 65%
Lolium perenne; 50 g a.i./ha
  % control: 78%
Poa annua; 12.5 g a.i./ha
  % control: 75%

## Cc1cc(OCc2ccccc2)nc(Oc2cc(C(F)(F)F)nn2C)c1 [Compound D]
Alopecurus myosuroides [2]; 15 g a.i./ha
  % Control: 60% and 57%

## CCNc1nc(Cl)nc(NC(C)(C)C#N)n1 [Cyanazine, reference compound]
Matricaria inodora; 120 g a.i./ha
  % Control: 52%
Matricaria inodora; 240 g a.i./ha
  % Control: 85%
Stellaria media; 120 g a.i./ha
  % Control: 61%
Stellaria media; 240 g a.i./ha
  % Control: 72%
Galium aparine; [6]
  % Control: 5%
Galium aparine; Galium aparine (1.whorl), 240 g a.i./ha
  % Control: 10%
Galium aparine; [8]
  % Control: 0%
Galium aparine; Galium aparine (2.whorl), 240 g a.i./ha
  % Control: 10%
Galium aparine; Galium aparine (3.whorl), 120 g a.i./ha
  % Control: 0%
Galium aparine; Galium aparine (3.whorl), 240 g a.i./ha
  % Control: 5%
Polygonum convolvulus; 120 g a.i./ha
  % Control: 60%
Papaver rhoeas; 120 g a.i./ha
  % Control: 0%
Papaver rhoeas; 240 g a.i./ha
  % Control: 0%

## CC(Oc1ccc(Oc2nc3ccc(Cl)cc3o2)cc1)C(=O)O (centres unmarked) [Fenoxaprop, reference compound]
Setaria viridis; 15 g a.i./ha
  % Control: 62%
Setaria viridis; 30 g a.i./ha
  % Control: 72%
Setaria viridis; 60 g a.i./ha
  % Control: 77%

## Nc1c(Cl)c(F)nc(OCC(=O)O)c1Cl [Fluroxypyr, reference compound]
Veronica persica; 120 g a.i./ha
  % Control: 52%
Polygonum lapathifolium; 120 g a.i./ha
  % Control: 80%
Matricaria inodora; 90 g a.i./ha
  % Control: 45%
Stellaria media; 120 g a.i./ha
  % Control: 67%
Polygonum convolvulus; 90 g a.i./ha
  % Control: 45%
Papaver rhoeas; 90 g a.i./ha
  % Control: 0%

## CC(C)c1ccc(NC(=O)N(C)C)cc1 [Isoproturon, reference compound]
Alopecurus myosuroides [2]; 120 g a.i./ha
  % Control: 75%
Myosotis arvensis; 1920 g a.i./ha
  % Control: 25%
Alopecurus myosuroides [1]; 150 g a.i./ha
  % control: 30%
Alopecurus myosuroides [1]; 300 g a.i./ha
  % control: 73%
Viola arvensis; 1920 g a.i./ha
  % Control: 65%
Setaria viridis; 150 g a.i./ha
  % control: 58%
Lamium purpureum; 1920 g a.i./ha
  % Control: 3%
Lolium perenne; 150 g a.i./ha
  % control: 10%
Lolium perenne; 300 g a.i./ha
  % control: 40%
Veronica persica; 1920 g a.i./ha
  % Control: 0%
Poa annua; 150 g a.i./ha
  % control: 65%
Poa annua; 300 g a.i./ha
  % control: 83%
Galium aparine; Galium aparine (2.whorl), 1920 g a.i./ha
  % Control: 0%
Polygonum convolvulus; 1920 g a.i./ha
  % Control: 4%

## CCC(CC)Nc1c([N+](=O)[O-])cc(C)c(C)c1[N+](=O)[O-] [Pendimethalin]
Alopecurus myosuroides [2]; 450 g a.i./ha
  % Control: 35%
Alopecurus myosuroides [2]; 900 g a.i./ha
  % Control: 55%

## N#Cc1cc(I)c(O)c(I)c1 [loxynil, reference compound]
Myosotis arvensis; 60 g a.i./ha
  % Control: 37%
Matricaria inodora; 60 g a.i./ha
  % Control: 89%
Galium aparine; [5]
  % Control: 40%
Galium aparine; [7]
  % Control: 5%
Papaver rhoeas; 60 g a.i./ha
  % Control: 0%
